The results in this text go back to patent publication US11046647B2, “Activators of the unfolded protein response” (The Board of Trustees of the University of Illinois, priority 2018, dated 2021).

In general, IC50 refers to the midpoint of a concentration-inhibition curve.

Holding throughout (assay type): cell-based, human
Test [1] concerns MCF-7 cells. Nature of the test: Alamar Blue/raptinal 24-hour cell death assay, MCF-7. Particulars: for IC50: 24-hour incubation, Alamar blue fluorescence, normalized to vehicle and raptinal. The procedure:
FIG. 4. […] MCF7 (ERα) cells, 24 hour incubation, read out via Alamar Blue Fluorescence, Dead Control: Raptinal, n=3 (A, B). […] Orthotopic Mouse Xenograft breast cancers of TYS cells, Visualization by bioluminescent imaging. Treatment: 40 mg/kg daily (−)-105 for 3 days either by oral gavage or by intraperitoneal injection.
ALAMAR BLUE/RAPTINAL ASSAY: Live cells maintain a reducing environment. The non-fluorescent cell permeable ingredient of Alamar Blue® (resazurin) is taken up by cells. In living cells, it is reduced to the fluorescent compound resorufin. Using a standard curve of cell number versus fluorescence the number of live cells in a test sample can be determined. At high concentrations raptinal kills 100% of cells. The vehicle in which the test compound is dissolved is not toxic. Thus, after subtracting the blank for medium alone, the fluorescence reading for vehicle corresponds to 100% viable cells and the signal for raptinal corresponds to 0% viable cells. While this assay provides a less direct measurement of cell death than the trypan blue assay, it is more easily scaled up to large numbers of samples.
ALAMAR BLUE RAPTINAL ASSAYS: Cells were plated at 4,000-10,000 cells/well (96 well plate), usually in 50 μl of medium. After about 18 hours, an additional 50 μl of medium containing 2× the desired final concentration of the test compound (C-105) was added to each well. After 24 hours Alamar Blue reagent was added and fluorescence in the wells was read (BMG PheraStar or Molecular Devices Spectra Max M3 Microplate Reader). % relative death was determined by setting the reading for raptinal-treated cells to 100% dead cells and the reading for vehicle-treated cells to 0% dead cells.
Preparative gram-scale chiral separation of (±)-1 yields enantiopure (R)-1 and (S)-1 with opposite optical rotations (Scheme 5). […] Values were obtained after 24-hour incubation utilizing Alamar blue fluorescence assay normalized to live and death controls (vehicle and raptinal treated). (S)-1 IC50 is >1 μM. Error shown as S.E.M.

For test [2], the system named is MCF-7 cells. Description: Dose-dependent death of MCF-7 cells (FIG. 10).
For a further test, the system named is TDG cells. Nature of the test: Trypan Blue exclusion cell death assay, TDG / TDG-Luc. Particulars: 24 hours. An excerpt:
(§1) TRYPAN BLUE: For decades, viable cells have been measured by their ability to exclude the dye Trypan Blue. […] Dead cells, which have lost membrane integrity, take up the dye and are blue. Thus, the percentage of dead cells is the percentage of cells that are Trypan Blue positive out of the total cell population. Quantitative assessment of Trypan Blue uptake uses a cell counter from Fisher. Since the assay is instrument based, there is no observer bias in determining the percentage of Trypan Blue positive cells.
(§2) TRYPAN BLUE ASSAYS: Assays are performed on cells in 6 well plates: 300,000 cells are plated in each well of a 6-well plate in 3 ml of medium. After 24 hours, the DMSO vehicle or the indicated compound is added (in 1000th of the vol.) The cells incubated for an additional 24 hours, and then harvested in 0.25 ml of trypsin, followed after harvest by 0.75 ml of medium. The cells are spun down and resuspended in 100-200 μl of medium left that is over the cell pellet (resuspend cells by pipetting up and down a few times). Add 10 μl to 10 μl of trypan blue. Then 10 μl is inserted into the counting slide. After inserting the slide into the Fisher TC20 counting is automatic (these many cells are needed because an accurate ratio of Trypan Blue positive to Trypan Blue negative cells requires about 200 cells in the field the instrument counts).
The Trypan Blue cell death assay was used to evaluate the ability of the active enantiomer of C-105 [(−)-105] to kill ERα positive TDG-Luc cells. For all studies, 300,000 TDG-Luc cells/well in 10% FBS were plated in a 6-well plate in triplicate. 24 hours after plating, the indicated concentrations the active enantiomer of (−)-105, or BHPI (top) ICI, or OHT (Lower left) or (+)-105 (lower right) were added. After 24 hours, the cells were harvested, and the % dead cells was determined by automated Trypan Blue exclusion using the Countess II automated hemocytometer. Percentage of viable cells was calculated by doing 100-(Cell Death %). (n=3±SEM).
TDG cells were incubated for 24 hours with 75 nM of BHPI or 75 nM of each of the indicated test compounds: 4, 6 and (±)-105 (enantiomers not separated). Cell death was determined using the instrument-based Trypan Blue exclusion assay. Structures are in the Synthesis section. […] (n=3±SEM).

In another test the test system is TYS cells. Description: Trypan Blue exclusion cell death assay, TYS / TYS-Luc. The note with it: 24 hours.
Source text: as §1, §2
The Trypan Blue cell death assay was used to evaluate the ability of the active enantiomer of 105 (−) [(−)-105] to kill ERα positive MCF-7 and TYS-Luc, human breast cancer cells. 300,000 T47D cells/well in 10% FBS were plated in a 6-well plate in triplicate. 24 hours after plating, the indicated concentrations of BHPI, or the active enantiomer 105 (−) of C-105 [(−)-105] was added. After 24 hours, the cells were harvested, and the % dead cells was determined by automated Trypan Blue exclusion using the Countess II automated hemocytometer. Percentage of viable cells was calculated by doing 100-(Cell Death %). (n=3±SEM).
TYS cells were incubated for 24 hours with 35 nM of BHPI or 35 nM of each of the indicated test compounds: 2, 4, and 105. Cell death was determined using the instrument-based Trypan Blue exclusion assay.
TYS cells were incubated for 24 hours with 50 nM of BHPI or 50 nM of each of the indicated test compounds: 4, 6 and 105. Cell death was determined using the instrument-based Trypan Blue exclusion assay. (n=3±SEM).

The subject of the next test is T47D cells. Nature of the test: Trypan Blue exclusion cell death assay, T47D / T47D-Luc. Particulars: 24 hours.
Source text: as §1
as §2, with “After inserting the slide into the Fisher TC20 counting is automatic (these many cells are needed because an accurate ratio of Trypan Blue positive to Trypan Blue negative cells requires about 200 cells in the field the instrument counts).” left out
The Trypan Blue cell death assay was used to compare the ability of the active (−) enantiomer of C-105 and BHPI to kill estrogen receptor α (ERα) positive T47D, human breast cancer cells expressing luciferase (T47D-Luc cells). […] After 24 hours, the cells were harvested, and the % dead cells was determined by automated Trypan Blue exclusion using the Countess II automated hemocytometer. Percentage of viable cells was calculated by doing 100-(Cell Death %). […]
T47D cells were incubated for 24 hours with 75 nM of BHPI or 75 nM of each of the indicated test compounds: 4 and 6. Cell death was determined using the instrument-based Trypan Blue exclusion assay. […]
T47D cells were treated for 24 hours with 100 nM BHPI, or with 100 nM of each of the test compounds: 6, 8, and 105. […] Cell death was determined using the instrument-based Trypan Blue exclusion assay. […]

The compound `O=C1Nc2c(C(F)(F)F)cccc2C1(c1ccc(O)cc1)c1ccc(OC(F)(F)F)cc1` (racemic) [(±)-105, 3-(4-hydroxyphenyl)-3-(4-(trifluoromethoxy)phenyl)-7-(trifluoromethyl)indolin-2-one] gave an IC50 with MCF-7 cells [1] (Homo sapiens, MCF7) of 42.6 nM. Moreover, the cell death entry in the test on MCF-7 cells [2] is “inactive”. Also, the “ability to kill TDG cells compared to BHPI” value in the test with TDG cells (75 nM) is “greatly increased ability to kill”. Moreover, the “ability to kill TYS cells compared to BHPI” value with TYS cells (35 nM) is “greatly increased ability to kill”; with TYS cells (50 nM), “increased ability to kill”. The “ability to kill T47D cells compared to BHPI” value in the test on T47D cells (100 nM) is “increased ability to kill”.
Take `O=C1Nc2c(C(F)(F)F)cccc2C1(c1ccc(O)cc1)c1ccc(OC(F)(F)F)cc1` (single isomer, unassigned; (-)) [(−)-105, 3-(4-hydroxyphenyl)-3-(4-(trifluoromethoxy)phenyl)-7-(trifluoromethyl)indolin-2-one]: the half-inhibitory concentration (IC50) in the test with MCF-7 cells [1] (listed as (R)-1) is 20.3 nM. The “ability to kill compared with BHPI and 01-15 (FIG. 4B)” value in the test on MCF-7 cells [1] (24 hour incubation, dead control raptinal) is “superior to BHPI and 01-15”. The cell death result with MCF-7 cells [2] is recorded as “induces dose-dependent death”. In addition, in the test on TDG cells (TDG-Luc), the “killing of TDG-Luc cells, dose response” value was “superior to BHPI and current endocrine therapies”. Moreover, in the test with TYS cells (TYS-Luc), the “killing of TYS-Luc cells, dose response” value is “superior to BHPI”. The “killing of T47D cells, dose response” value in the test with T47D cells (T47D-Luc) is listed as “superior to BHPI”.
